Patent US7524936B2, “Mitogenic oxygenase regulators” (Emory University, priority 2000, dated 2009)

B1: p67phox: recombinant human cytosolic factor of the phagocyte respiratory-burst oxidase (protein, UniProt P19878 1-526, looked up)
Neutrophil cytosol factor 2: MSLVEAISLWNEGVLAADKKDWKGALDAFSAVQDPHSRICFNIGCMYTILKNMTEAEKAFTRSINRDKHLAVAYFQRGMLYYQTEKYDLAIKDLKEALIQLRGNQLIDYKILGLQFKLFACEVLYNIAFMYAKKEEWKKAEEQLALATSMKSEPRHSKIDKAMECVWKQKLYEPVVIPVGKLFRPNERQVAQLAKKDYLGKATVVASVVDQDSFSGFAPLQPQAAEPPPRPKTPEIFRALEGEAHRVLFGFVPETKEELQVMPGNIVFVLKKGNDNWATVMFNGQKGLVPCNYLEPVELRIHPQQQPQEESSPQSDIPAPPSSKAPGRPQLSPGQKQKEEPKEVKLSVPMPYTLKVHYKYTVVMKTQPGLPYSQVRDMVSKKLELRLEHTKLSYRPRDSNELVPLSEDSMKDAWGQVKNYCLTLWCENTVGDQGFPDEPKESEKADANNQTTEPQLKKGSQVEALFSYEATQPEDLEFQEGDIILVLSKVNEEWLEGECKGKVGIFPKVFVEDCATTDLESTRREV
B2: p47phox: recombinant human cytosolic factor of the phagocyte respiratory-burst oxidase (protein, UniProt P14598 1-390, looked up)
Neutrophil cytosol factor 1: MGDTFIRHIALLGFEKRFVPSQHYVYMFLVKWQDLSEKVVYRRFTEIYEFHKTLKEMFPIEAGAINPENRIIPHLPAPKWFDGQRAAENRQGTLTEYCSTLMSLPTKISRCPHLLDFFKVRPDDLKLPTDNQTKKPETYLMPKDGKSTATDITGPIILQTYRAIANYEKTSGSEMALSTGDVVEVVEKSESGWWFCQMKAKRGWIPASFLEPLDSPDETEDPEPNYAGEPYVAIKAYTAVEGDEVSLLEGEAVEVIHKLLDGWWVIRKDDVTGYFPSMYLQKSGQDVSQAQRQIKRGAPPRRSSIRNAHSIHQRSRKRLSQDAYRRNSVRFLQQRRRQARPGPQSPGSPLEEERQTQRSKPQPAVPPRPSADLILNRCSESTKRKLASAV

What was measured:
[1] = test system: Nox 4 enzyme and Nox 5 enzyme; assay: cell-free assay for Nox 4 / Nox 5 NADPH-oxidase activity (NADPH-dependent chemiluminescence); assay type: biochemical, human; settings: MgCl2 1-5 mM; cell lysate, 200 μM NADPH, 10 μM lucigenin, 37° C.
Description: In an alternate and preferred embodiment of the present invention, cells that are stably transfected with Nox 4 (YA28), Nox 5 (YA28) or with empty vector (NEF2) are grown in 10 cm tissue culture plates in medium containing DMEM, 10% calf serum, 100 units/ml penicillin, 100 μg/ml streptomycin, and 1 μg/ml puromycin to approximately 80% confluency. Cells (five tissue culture plates of each cell type) are washed briefly with 5 ml phosphate buffered saline (PBS) then dissociated from the plates with PBS containing 5 mM EDTA. Cells are pelleted by centrifuging briefly at 1000×g.
To permeabilize the cells, freeze thaw lysis is carried out and this is followed by passage of the cell material through a small bore needle. The supernatant is removed and the cells are frozen on dry ice for 15 minutes. […]
The cell lysates are assayed for protein concentration using the BioRad protein assay system. […] The reaction is initiated by adding 1.5 mM NADPH and 75 μM lucigenin to the assay mix to give a final concentration of 200 μM NADPH and 10 μM lucigenin, and the chemiluminescence is monitored immediately. […] The plate is monitored continuously for 60 minutes and the maximal relative luminescence unit (RLU) value for each sample is used for the graph. […]

[2] = test system: lysates of NIH 3T3 cells stably transfected with the human Nox 4 gene or human Nox 5 gene; assay: NADPH-dependent superoxide generation, lucigenin luminescence assay in cell lysates; assay type: biochemical; settings: 30 μg cell lysate, 200 μM NADPH, 500 μM lucigenin
Description: In one embodiment of the present invention, NIH 3T3 cells stably transfected with the human Nox 4 gene (SEQ ID NO:1) or human Nox 5 gene (SEQ ID NO:3) are analyzed for superoxide generation using the lucigenin (Bis-N-methylacridinium luminescence assay (Sigma, St. Louis, Mo., Li et al. (1998) J. Biol. Chem. 273, 2015-2023). Cells are washed with cold HANKS' solution and homogenized on ice in HANKS' buffer containing 15% sucrose using a Dounce homogenizer. Cell lysates are frozen immediately in a dry ice/ethanol bath. For the assay, 30 μg of cell lysate is mixed with 200 μM NADPH and 500 μM lucigenin. Luminescence is monitored using a LumiCounter (Packard) at three successive one minute intervals and the highest value was used for comparison. Protein concentration is determined by the Bradford method.
Superoxide generation is monitored in lysates from some of the stably transfected cell lines and is compared with superoxide generation by the untransfected NIH 3T3 cell lysates.

| Molecule | enhancement of NADPH-oxidase activity [1] | luminescent signal (superoxide generation) [2] |
| --- | --- | --- |
| [Cl-].[Cl-].[Mg+2] [MgCl2] | about 2 fold | – |
| c1ccc2c(c1)[I+]c1ccccc1-2 [diphenylene iodonium, reference compound] | – | inhibited |
| superoxide dismutase [reference compound] | – | inhibited |
| B1 | – | unaffected |
| B2 | – | unaffected |
